Experiments:
Experiment in all cases: relative viability (nuclei count vs DMSO), 5 days (fraction); higher = more cells survive
[1] = compound: CN(c1ncccc1CNc1nc(Nc2ccc3c(c2)CC(=O)N3)ncc1C(F)(F)F)S(C)(=O)=O + CS(=O)(=O)N1CCN(Cc2cc3nc(-c4cccc5[nH]ncc45)nc(N4CCOCC4)c3s2)CC1 [Pictilisib] (partner 1 µM)
Summary of the method: (§1)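 Five library-drug doses in √10 steps were combined with a fixed anchor-drug dose, or a single drug was given alone, by pin tool to lung cancer cell lines in 1536-well plates the day after seeding. Nuclei were stained and counted after 5 days. Relative viability is the nuclei count in treated wells over that in vehicle wells, taken as the median of duplicate plates.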

[2] = compound: CN(c1ncccc1CNc1nc(Nc2ccc3c(c2)CC(=O)N3)ncc1C(F)(F)F)S(C)(=O)=O + Cc1nc(NC(=O)N2CCC[C@H]2C(N)=O)sc1-c1ccnc(C(C)(C)C(F)(F)F)c1 [Alpelisib] (partner 2 µM)
Summary of the method: as §1

[3] = compound: CN(c1ncccc1CNc1nc(Nc2ccc3c(c2)CC(=O)N3)ncc1C(F)(F)F)S(C)(=O)=O + N=C(N)NC(=N)NCCc1ccccc1 [Phenformin] (partner 250 µM)
Summary of the method: as §1

[4] = compound: CN(c1ncccc1CNc1nc(Nc2ccc3c(c2)CC(=O)N3)ncc1C(F)(F)F)S(C)(=O)=O + NC(=O)Nc1cc(-c2cccc(F)c2)sc1C(=O)N[C@H]1CCCNC1 [AZD7762] (partner 0.2 µM)
Summary of the method: as §1

Row | Cell Line | relative viability ([1]; first compound 0.01 µM) | relative viability ([1]; first compound 0.03162 µM) | relative viability ([1]; first compound 0.1 µM) | relative viability ([1]; first compound 0.3162 µM) | relative viability ([1]; first compound 1 µM) | relative viability ([2]; first compound 0.01 µM) | relative viability ([2]; first compound 0.03162 µM) | relative viability ([2]; first compound 0.1 µM) | relative viability ([2]; first compound 0.3162 µM) | relative viability ([2]; first compound 1 µM) | relative viability ([3]; first compound 0.01 µM) | relative viability ([3]; first compound 0.03162 µM) | relative viability ([3]; first compound 0.1 µM) | relative viability ([3]; first compound 0.3162 µM) | relative viability ([3]; first compound 1 µM) | relative viability ([4]; first compound 0.01 µM) | relative viability ([4]; first compound 0.03162 µM) | relative viability ([4]; first compound 0.1 µM) | relative viability ([4]; first compound 0.3162 µM) | relative viability ([4]; first compound 1 µM)
1 | HCC-366 | 0.108 | 0.155 | 0.0871 | 0.197 | 0.19 | 0.35 | 0.471 | 0.455 | 0.389 | 0.309 | 0.662 | 0.695 | 0.614 | 0.577 | 0.606 | 0.378 | 0.329 | 0.319 | 0.288 | 0.34
2 | HCC-827 | 0.878 | 1.08 | 1.09 | 1.15 | 1.07 | 1.02 | 1.07 | 1.03 | 1.01 | 0.942 | 0.402 | 0.465 | 0.432 | 0.441 | 0.404 | 0.202 | 0.227 | 0.25 | 0.284 | 0.331
3 | HOP-62 | 0.784 | 0.899 | 0.793 | 0.853 | 0.643 | 0.909 | 1.25 | 1.06 | 0.84 | 0.772 | 0.776 | 0.681 | 0.628 | 0.675 | 0.558 | 0.742 | 0.776 | 0.531 | 0.75 | 0.628
4 | IA-LM | 0.348 | 0.292 | 0.309 | 0.32 | 0.276 | 0.631 | 0.884 | 0.637 | 0.649 | 0.688 | – | – | – | – | – | – | – | – | – | –
5 | LC-2-ad | 0.567 | 0.552 | 0.647 | 0.928 | 0.66 | 0.789 | 0.714 | 0.883 | 0.902 | 0.877 | 0.52 | 0.544 | 0.548 | 0.567 | 0.524 | 0.864 | 0.808 | 0.892 | 0.768 | 0.811
6 | LCLC-97TM1 | – | 0.23 | 0.196 | 0.159 | 0.148 | – | 0.246 | 0.229 | 0.246 | 0.161 | 0.345 | 0.437 | 0.425 | 0.397 | 0.401 | 0.264 | 0.278 | 0.218 | 0.267 | 0.195
7 | LCLC-103H | 0.558 | 0.561 | 0.6 | 0.536 | 0.577 | 1.04 | 0.982 | 0.868 | 0.872 | 0.897 | 0.337 | 0.298 | 0.277 | 0.348 | 0.318 | 0.72 | 0.711 | 0.734 | 0.745 | 0.815
8 | NCI-H520 | 0.285 | 0.386 | 0.322 | 0.277 | 0.379 | 0.985 | 0.894 | 0.829 | 0.96 | 1 | 0.601 | 0.777 | 0.57 | 0.678 | 0.552 | – | – | – | – | –
9 | NCI-H661 | 0.578 | 0.335 | 0.405 | 0.378 | 0.383 | 0.817 | 0.695 | 0.546 | 0.85 | 0.5 | 0.285 | 0.286 | 0.289 | 0.277 | 0.294 | – | – | – | – | –
10 | NCI-H1299 | 0.754 | 0.768 | 0.809 | 0.739 | 0.693 | 1.05 | 1.02 | 1.01 | 1.04 | 1.05 | – | – | – | – | – | – | – | – | – | –
11 | NCI-H1563 | 0.602 | 0.629 | 0.657 | 0.722 | 0.662 | 0.867 | 1.03 | 0.897 | 0.917 | 0.933 | 0.677 | 0.686 | 0.683 | 0.634 | 0.649 | – | – | – | – | –
12 | NCI-H1648 | – | – | – | – | – | – | – | – | – | – | – | – | – | – | – | 0.66 | 0.588 | 0.535 | 0.551 | 0.677
13 | NCI-H1650 | 0.557 | 0.676 | 0.609 | – | 0.581 | – | – | – | – | – | 0.481 | 0.53 | 0.519 | 0.436 | 0.409 | – | – | – | – | –
14 | NCI-H1703 | 0.266 | 0.243 | 0.248 | 0.229 | 0.235 | 0.329 | 0.419 | 0.321 | 0.345 | 0.294 | – | – | – | – | – | 0.131 | 0.18 | 0.124 | 0.127 | 0.118
15 | NCI-H2009 | 0.793 | 0.91 | 0.745 | 0.95 | 0.958 | 1.12 | 1.21 | 1.17 | 1.17 | 1.1 | 0.525 | 0.483 | 0.502 | 0.413 | 0.504 | – | – | – | – | –
16 | NCI-H2023 | 0.265 | 0.329 | 0.199 | 0.225 | 0.2 | 0.521 | 0.677 | 0.668 | 0.59 | 0.507 | 0.451 | 0.45 | 0.416 | 0.314 | 0.408 | – | – | – | – | –
17 | NCI-H2228 | 0.422 | 0.453 | 0.376 | 0.358 | 0.294 | 0.634 | 0.766 | 0.857 | 0.633 | 0.701 | 0.321 | 0.471 | 0.306 | 0.331 | 0.292 | – | – | – | – | –
18 | SK-LU-1 | 0.519 | 0.53 | 0.473 | 0.554 | 0.423 | 0.929 | 1.25 | 0.988 | 0.988 | 0.928 | 0.579 | 0.597 | 0.453 | 0.472 | 0.371 | – | – | – | – | –
19 | SK-MES-1 | 0.401 | 0.322 | 0.293 | 0.311 | 0.367 | 0.915 | 0.926 | 0.843 | 0.882 | 0.712 | 0.698 | 0.63 | 0.658 | 0.596 | 0.513 | – | – | – | – | –
20 | SW 900 | – | – | – | – | – | – | – | – | – | – | 0.745 | 0.735 | 0.602 | 0.515 | 0.581 | 0.579 | 0.688 | 0.784 | 0.594 | 0.733
21 | SW 1573 | 0.584 | 0.52 | 0.422 | 0.573 | 0.454 | 0.73 | 1.08 | 0.628 | 0.922 | 0.778 | 0.383 | 0.405 | 0.381 | 0.412 | 0.314 | – | – | – | – | –
22 | UMC-11 | 0.759 | 0.843 | 0.793 | 0.847 | 0.708 | 1 | 1.06 | 0.901 | 0.809 | 0.787 | 0.333 | 0.366 | 0.334 | 0.314 | 0.262 | – | – | – | – | –
